The source of these data is PubChem BioAssay (NCI).

The structures appear in SMILES notation.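 Dose response: 5 concentrations. Exposure: 48 h. Format: 96-well plates. Endpoint: linear interpolation; highest concentration if not reached. TGI denotes the concentration required for complete inhibition of growth.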 Bounds are passed on as bounds.

Some test systems named below: HT29 colon; M14 melanoma; MALME-3M melanoma; NCI-H226 lung; NCI-H460 lung; NCI-H522 lung; OVCAR-3 ovarian; OVCAR-4 ovarian; RPMI-8226 leukemia; SF-268 CNS; SF-295 CNS; SF-539 CNS; UACC-257 melanoma; UO-31 renal; MDA-MB-231 breast; MDA-MB-435; BT-549 breast.
Test in all cases: NCI-60 cell line screen, 48 h

Regarding `CCOC(OCC)(OCC)C(Br)CC` (centres undefined), the TGI in the test on HT29 colon, in the test with M14 melanoma, in the test with MALME-3M melanoma, in the test on NCI-H226 lung, in the test on NCI-H460 lung and with NCI-H522 lung was > 100 µM in each case. In addition, the TGI was > 100 µM with OVCAR-3 ovarian; > 100 µM in the test on OVCAR-4 ovarian; 47.5 µM with RPMI-8226 leukemia; > 100 µM in the test on SF-268 CNS; > 100 µM in the test with SF-295 CNS; > 100 µM with SF-539 CNS. The TGI in the test on UACC-257 melanoma and in the test with UO-31 renal was > 100 µM throughout.

`O=c1oc2ccccc2c(-c2ccc(O)cc2)c1Oc1ccccc1`: the TGI with HT29 colon was > 100 µM; in the test on M14 melanoma, 32.1 µM; in the test on MALME-3M melanoma, 9.26 µM; with MDA-MB-231 breast it was > 100 µM; in the test with MDA-MB-435, > 100 µM; in the test on NCI-H226 lung, > 75.7 µM. Moreover, the TGI in the test on NCI-H460 lung was 20.5 µM; in the test with OVCAR-3 ovarian, > 63.3 µM; in the test with OVCAR-4 ovarian, > 56.7 µM; in the test with RPMI-8226 leukemia, > 100 µM; in the test on SF-268 CNS, 25.6 µM; with SF-295 CNS, 53.6 µM. Moreover, the TGI in the test with SF-539 CNS was > 75.5 µM; with UACC-257 melanoma, 30.7 µM; in the test on UO-31 renal, 32.3 µM.

Consider `CC(=O)Nc1ccc2c(c1)C(=O)c1ccccc1-2`, for which the TGI with HT29 colon, in the test on M14 melanoma, with MALME-3M melanoma, in the test with NCI-H226 lung, in the test on NCI-H460 lung and in the test with NCI-H522 lung was > 100 µM throughout. The TGI with OVCAR-3 ovarian, with RPMI-8226 leukemia, with SF-268 CNS, in the test with SF-295 CNS, in the test with SF-539 CNS and with UACC-257 melanoma was > 100 µM in each case. Moreover, the TGI in the test on UO-31 renal is > 100 µM.

Regarding `CCN(CC)c1ccc(Cl)c2c1C(O)(C(C)C)C2(C)C` (centres undefined), the TGI in the test on HT29 colon was found to be 24.5 µM; with M14 melanoma, 30.5 µM; in the test on MALME-3M melanoma, 27.4 µM; with NCI-H226 lung, 33.6 µM; with NCI-H460 lung it was 33.9 µM; in the test with NCI-H522 lung, 29.9 µM. For the same compound, the TGI with OVCAR-3 ovarian worked out at 25.2 µM; in the test with OVCAR-4 ovarian, 33.3 µM; with RPMI-8226 leukemia, 31.2 µM; with SF-268 CNS it was 44.2 µM; with SF-295 CNS, 33 µM; in the test with SF-539 CNS it was 34.2 µM. The figures for the TGI in the test on UACC-257 melanoma and in the test on UO-31 renal were 27.6 µM and 32 µM, respectively.

Consider `CO/C(N)=C(\C#N)N=Cc1ccsc1`, for which the TGI in the test with BT-549 breast is 69.7 µM; with HT29 colon, > 100 µM; in the test with M14 melanoma, > 100 µM; in the test with MALME-3M melanoma, > 100 µM; in the test with MDA-MB-231 breast, > 100 µM; in the test with MDA-MB-435, > 100 µM. The TGI in the test on NCI-H226 lung is > 100 µM; in the test with NCI-H460 lung it was > 100 µM; with NCI-H522 lung it was 79.6 µM; in the test with OVCAR-3 ovarian, > 100 µM; with OVCAR-4 ovarian, > 100 µM; with SF-268 CNS, > 100 µM. Also, the TGI with SF-295 CNS, with SF-539 CNS, in the test on UACC-257 melanoma and in the test on UO-31 renal was > 100 µM in each case.

Take `c1ccc(C(NC2=NCCO2)C2CC2)cc1` (centres undefined): the TGI with HT29 colon, in the test on M14 melanoma, in the test with MALME-3M melanoma, with MDA-MB-231 breast, with MDA-MB-435 and in the test on NCI-H226 lung was > 100 µM each time. Also, the TGI with NCI-H460 lung, in the test on NCI-H522 lung, with OVCAR-3 ovarian, in the test with OVCAR-4 ovarian, in the test on RPMI-8226 leukemia and in the test on SF-268 CNS was > 100 µM throughout. Further, the TGI in the test with SF-295 CNS, in the test on SF-539 CNS, in the test with UACC-257 melanoma and in the test with UO-31 renal was > 100 µM throughout.

Regarding `O=C1/C(=C/c2ccc(Br)s2)NC(=S)N1CN1CCCCC1`, the TGI is 96.8 µM in the test on BT-549 breast; > 100 µM in the test on HT29 colon; > 100 µM with MALME-3M melanoma; > 100 µM in the test with MDA-MB-231 breast; > 100 µM with MDA-MB-435; > 100 µM with NCI-H226 lung. Moreover, the TGI in the test with NCI-H460 lung is > 100 µM; with NCI-H522 lung it was 83.1 µM; in the test on OVCAR-3 ovarian, 59.6 µM; in the test on OVCAR-4 ovarian, > 100 µM; with RPMI-8226 leukemia it was 50.8 µM; in the test on SF-268 CNS, > 100 µM. In addition, the TGI was 91.2 µM in the test on SF-295 CNS, > 100 µM in the test on UACC-257 melanoma and 76.3 µM in the test on UO-31 renal.

Turning to `CCCCCCCCCCCCCCCCOP(=O)([O-])OCC[N+](C)(C)C1CC(C)(C)N(O)C(C)(C)C1`, the TGI in the test with BT-549 breast, in the test on HT29 colon, with M14 melanoma, with MALME-3M melanoma, in the test with MDA-MB-231 breast and in the test with MDA-MB-435 was > 100 µM each time. Also, the TGI in the test on NCI-H226 lung, with NCI-H460 lung, in the test with NCI-H522 lung, in the test with OVCAR-3 ovarian, in the test with OVCAR-4 ovarian and in the test on SF-268 CNS was > 100 µM in each case. Further, the TGI in the test with SF-295 CNS, in the test with SF-539 CNS, in the test on UACC-257 melanoma and in the test on UO-31 renal was > 100 µM in each case.

Regarding `COC(=O)[C@@H]1Cc2ccc(OC)c(c2)OCCC(=O)N1`, the TGI with BT-549 breast, in the test on HT29 colon, in the test with M14 melanoma, with MALME-3M melanoma, in the test with MDA-MB-231 breast and with MDA-MB-435 was > 100 µM throughout. The TGI in the test with NCI-H226 lung, in the test with NCI-H522 lung, in the test on OVCAR-3 ovarian, in the test with OVCAR-4 ovarian, in the test with RPMI-8226 leukemia and with SF-268 CNS was > 100 µM in each case. In addition, the TGI in the test on SF-295 CNS, in the test with UACC-257 melanoma and in the test with UO-31 renal was > 100 µM each time.
